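A five-concentration, 48-hour dose response in 96-well plates underlies each endpoint, interpolated linearly between surrounding concentrations. TGI is the concentration that stops growth completely.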
Columns and labels:
Test in all cases: NCI-60 cell line screen, 48 h
RXF 393 renal = tested on: RXF 393 renal
HCC-2998 colon = tested on: HCC-2998 colon
T-47D breast = tested on: T-47D breast
SK-MEL-28 melanoma = tested on: SK-MEL-28 melanoma
EKVX NSCLC = tested on: EKVX NSCLC
UACC-62 melanoma = tested on: UACC-62 melanoma
MDA-MB-435 = tested on: MDA-MB-435
TK-10 renal = tested on: TK-10 renal
SNB-19 CNS = tested on: SNB-19 CNS
COLO 205 colon = tested on: COLO 205 colon
HT29 colon = tested on: HT29 colon
SK-MEL-5 melanoma = tested on: SK-MEL-5 melanoma
KM12 colon = tested on: KM12 colon
A549 NSCLC = tested on: A549 NSCLC
SK-MEL-2 melanoma = tested on: SK-MEL-2 melanoma
ACHN renal = tested on: ACHN renal
CCRF-CEM leukemia = tested on: CCRF-CEM leukemia
SW-620 colon = tested on: SW-620 colon
CAKI-1 renal = tested on: CAKI-1 renal
NCI-H226 lung = tested on: NCI-H226 lung
MDA-N = tested on: MDA-N
MOLT-4 leukemia = tested on: MOLT-4 leukemia
786-0 renal = tested on: 786-0 renal
HCT-116 colon = tested on: HCT-116 colon
MALME-3M melanoma = tested on: MALME-3M melanoma
IGROV1 ovarian = tested on: IGROV1 ovarian
HOP-62 NSCLC = tested on: HOP-62 NSCLC
PC-3 prostate = tested on: PC-3 prostate
HCT-15 colon = tested on: HCT-15 colon
SF-268 CNS = tested on: SF-268 CNS
U251 CNS = tested on: U251 CNS
DU-145 prostate = tested on: DU-145 prostate
OVCAR-4 ovarian = tested on: OVCAR-4 ovarian
UO-31 renal = tested on: UO-31 renal
RPMI-8226 leukemia = tested on: RPMI-8226 leukemia
OVCAR-3 ovarian = tested on: OVCAR-3 ovarian
MCF7 breast = tested on: MCF7 breast
OVCAR-5 ovarian = tested on: OVCAR-5 ovarian
NCI-H522 lung = tested on: NCI-H522 lung
MDA-MB-231 breast = tested on: MDA-MB-231 breast
NCI/ADR-RES ovarian = tested on: NCI/ADR-RES ovarian
NCI-H23 lung = tested on: NCI-H23 lung
UACC-257 melanoma = tested on: UACC-257 melanoma
SF-295 CNS = tested on: SF-295 CNS
OVCAR-8 ovarian = tested on: OVCAR-8 ovarian
SR leukemia = tested on: SR leukemia
HS 578T breast = tested on: HS 578T breast
K-562 leukemia = tested on: K-562 leukemia
BT-549 breast = tested on: BT-549 breast
M14 melanoma = tested on: M14 melanoma
SK-OV-3 ovarian = tested on: SK-OV-3 ovarian
A498 renal = tested on: A498 renal
HL-60(TB) leukemia = tested on: HL-60(TB) leukemia
SF-539 CNS = tested on: SF-539 CNS
NCI-H460 lung = tested on: NCI-H460 lung
SNB-75 CNS = tested on: SNB-75 CNS
LOX IMVI melanoma = tested on: LOX IMVI melanoma
HOP-92 NSCLC = tested on: HOP-92 NSCLC
SN12C renal = tested on: SN12C renal

## S=C(N1CCN(c2cccc(Cl)c2)CC1)N1CCN(c2cccc(Cl)c2)CC1
RXF 393 renal
  TGI: > 100 µM
HCC-2998 colon
  TGI: 36.1 µM
T-47D breast
  TGI: > 100 µM
SK-MEL-28 melanoma
  TGI: > 100 µM
EKVX NSCLC
  TGI: > 100 µM
UACC-62 melanoma
  TGI: > 100 µM
MDA-MB-435
  TGI: > 100 µM
TK-10 renal
  TGI: > 100 µM
SNB-19 CNS
  TGI: > 100 µM
COLO 205 colon
  TGI: 68 µM
HT29 colon
  TGI: > 100 µM
SK-MEL-5 melanoma
  TGI: > 100 µM
KM12 colon
  TGI: 61.7 µM
A549 NSCLC
  TGI: > 100 µM
SK-MEL-2 melanoma
  TGI: > 100 µM
ACHN renal
  TGI: > 100 µM
CCRF-CEM leukemia
  TGI: 27.8 µM
SW-620 colon
  TGI: > 100 µM
CAKI-1 renal
  TGI: 83.7 µM
NCI-H226 lung
  TGI: 88.4 µM
MDA-N
  TGI: > 100 µM
MOLT-4 leukemia
  TGI: 64.1 µM
786-0 renal
  TGI: > 100 µM
HCT-116 colon
  TGI: > 100 µM
MALME-3M melanoma
  TGI: 71.4 µM
IGROV1 ovarian
  TGI: > 100 µM
HOP-62 NSCLC
  TGI: > 100 µM
PC-3 prostate
  TGI: > 100 µM
HCT-15 colon
  TGI: > 100 µM
SF-268 CNS
  TGI: > 100 µM
U251 CNS
  TGI: > 100 µM
DU-145 prostate
  TGI: > 100 µM
OVCAR-4 ovarian
  TGI: > 100 µM
UO-31 renal
  TGI: 86.1 µM
RPMI-8226 leukemia
  TGI: > 100 µM
OVCAR-3 ovarian
  TGI: > 100 µM
MCF7 breast
  TGI: > 100 µM
OVCAR-5 ovarian
  TGI: > 100 µM
NCI-H522 lung
  TGI: > 100 µM
MDA-MB-231 breast
  TGI: 58.8 µM
NCI/ADR-RES ovarian
  TGI: > 100 µM
NCI-H23 lung
  TGI: > 100 µM
UACC-257 melanoma
  TGI: > 100 µM
SF-295 CNS
  TGI: > 100 µM
OVCAR-8 ovarian
  TGI: > 100 µM
SR leukemia
  TGI: 32.4 µM
HS 578T breast
  TGI: 66.6 µM
K-562 leukemia
  TGI: > 100 µM
BT-549 breast
  TGI: > 100 µM
M14 melanoma
  TGI: > 100 µM
SK-OV-3 ovarian
  TGI: > 100 µM

## COC(=O)/C=C(\S/C=C(/c1ccccc1)N1CCn2c(C(=O)c3ccccc3)c(C(=O)OC)c(C(=O)OC)c21)C(=O)OC
RXF 393 renal
  TGI: 4.67 µM
HCC-2998 colon
  TGI: > 10 µM
A498 renal
  TGI: > 10 µM
T-47D breast
  TGI: 5.91 µM
EKVX NSCLC
  TGI: > 10 µM
HL-60(TB) leukemia
  TGI: 2.6 µM
UACC-62 melanoma
  TGI: > 10 µM
MDA-MB-435
  TGI: > 10 µM
TK-10 renal
  TGI: 5.61 µM
SNB-19 CNS
  TGI: > 10 µM
COLO 205 colon
  TGI: 3.46 µM
HT29 colon
  TGI: > 10 µM
SK-MEL-5 melanoma
  TGI: > 10 µM
KM12 colon
  TGI: > 10 µM
SF-539 CNS
  TGI: 3.74 µM
A549 NSCLC
  TGI: > 10 µM
SK-MEL-2 melanoma
  TGI: > 10 µM
ACHN renal
  TGI: > 10 µM
CCRF-CEM leukemia
  TGI: 4.2 µM
SW-620 colon
  TGI: 2.03 µM
CAKI-1 renal
  TGI: > 10 µM
NCI-H226 lung
  TGI: > 10 µM
MDA-N
  TGI: > 10 µM
MOLT-4 leukemia
  TGI: 5.64 µM
786-0 renal
  TGI: 3.19 µM
HCT-116 colon
  TGI: 5 µM
MALME-3M melanoma
  TGI: 4.81 µM
IGROV1 ovarian
  TGI: > 10 µM
NCI-H460 lung
  TGI: > 10 µM
HOP-62 NSCLC
  TGI: 5.02 µM
SNB-75 CNS
  TGI: > 10 µM
PC-3 prostate
  TGI: > 10 µM
LOX IMVI melanoma
  TGI: 4.28 µM
HCT-15 colon
  TGI: 6.7 µM
HOP-92 NSCLC
  TGI: 4.73 µM
U251 CNS
  TGI: > 10 µM
OVCAR-4 ovarian
  TGI: 6.57 µM
RPMI-8226 leukemia
  TGI: 7.49 µM
OVCAR-3 ovarian
  TGI: 2.87 µM
MCF7 breast
  TGI: 4.33 µM
OVCAR-5 ovarian
  TGI: > 10 µM
NCI-H522 lung
  TGI: 1.73 µM
MDA-MB-231 breast
  TGI: 5.27 µM
NCI/ADR-RES ovarian
  TGI: > 10 µM
SN12C renal
  TGI: > 10 µM
NCI-H23 lung
  TGI: > 10 µM
UACC-257 melanoma
  TGI: 9.21 µM
SF-295 CNS
  TGI: > 10 µM
OVCAR-8 ovarian
  TGI: 3.21 µM
SR leukemia
  TGI: > 10 µM
HS 578T breast
  TGI: > 10 µM
K-562 leukemia
  TGI: > 10 µM
BT-549 breast
  TGI: > 10 µM
M14 melanoma
  TGI: 5.83 µM
SK-OV-3 ovarian
  TGI: > 10 µM

— PubChem BioAssay (NCI)
